Source: US20070141707A1, “Sponge toxins” (priority 2003, published 2007)

Legend:
[1] = tested on: cultured DRG neurones; experiment: Whole-cell recording of membrane potential and input resistance in cultured DRG neurones; type: cell-based, rat; settings: 1.5 mM zinc, before poly-APS, n=7
Description: (§1) Primary cultures of dorsal root ganglion (DRG) neurones were prepared following enzymatic and mechanical dissociation of dorsal root ganglia from decapitated 2-day old Sprague Dawley rats. The sensory neurones were plated on laminin-polyornithine coated coverslips and bathed in F14 culture medium (Imperial Laboratories) supplemented with 10% horse serum (Gibco), penicillin (5000 IU/ml), streptomycin ([…]), NaHCO3 (14 mM) and nerve growth factor (20 ng/ml). The cultures were maintained for up to 2 weeks at 37° C. in humidified air with 5% CO2, and re-fed with fresh culture medium every 5-7 days.
(§2) All experiments were conducted at room temperature (approximately 23° C.). The whole-cell recording technique was used to study the actions of poly-APS and halitoxin preparations on membrane potential, input resistance (evaluated from 100-300 ms electrotonic potentials evoked by −30 to −200 pA current commands) and holding current. […] Poly-APS and halitoxin were applied to the extracellular environment by low pressure ejection via a blunt micropipette (tip diameter about […]) positioned approximately […] from the neurone being recorded. […]
The electrophysiological data were stored on digital audio tape (DAT) using a DTR-1200 DAT recorder (Biologic) and subsequently analysed using Cambridge Electronic Design voltage clamp software (version 6). […]

[2] = tested on: cultured DRG neurones; experiment: Voltage clamp recording of poly-APS evoked inward/holding current in DRG neurones; type: cell-based, rat; settings: 1.5 mM zinc continually present, before poly-APS, n=6
Description: as §1
as §2, with “current. Whole cell recordings were made using an Axoclamp-2A switching voltage clamp amplifier operated at a sampling rate of 15-20 kHz.” for “current.”

[3] = tested on: HEK293 cells; experiment: fura-2 intracellular Ca2+ imaging in HEK293 cells; type: cell-based, human; settings: poly-APS 0.5 μg/ml, n=11
Description: HEK293 cells (human embryonic kidney cell line) were maintained in Dulbecco's modified Eagle's medium (DMEM). In preparation for transfection experiments cells were seeded 24 hours prior to experimentation at a density of 5×10^5 cells per well in six well plates, the same seeding density was used for confocal and electrophysiology/calcium imaging experiments in 35 mm culture dishes.
Cultured DRG neurones and HEK 293 cells were incubated for 1 hour in NaCl-based extracellular solution containing 10 μM fura-2AM (Sigma, 1 mM stock in dimethylformamide). The cells were then washed for 20 minutes to remove the extracellular fura-2AM and to allow cytoplasmic de-esterification of the Ca^2+ sensitive fluorescent dye. The cells were constantly perfused (1-2 ml/min) and viewed under an inverted Olympus BX50W1 microscope with a KAI-1001 S/N 5B7890-4201 Olympus camera attached. The fluorescence ratiometric images from the data obtained at excitation wavelengths of 340 nm and 380 nm were viewed and analysed using OraCal pro, Merlin morphometry temporal mode (Life Sciences resources, version 1.20).

[4] = read-out: KD for zinc; cited from earlier work

In the case of `[Zn+2]` [zinc], the “resting membrane potential in the presence of zinc” value [1] is reported as −47±7 mV, the “resting holding current at −90 mV with zinc” value [2] is reported as −120±30 pA and the “effect of zinc on rise in intracellular Ca2+ produced by poly-APS” value [3] is reported as “attenuated”.
For `Cc1ccc(N(CC(=O)O)CC(=O)O)c(OCCOc2cc3cc(-c4ncc(C(=O)O)o4)oc3cc2N(CC(=O)O)CC(=O)O)c1` [fura-2], the Kd [4] is listed as about 2 nM.
